Experimental data: PMC4450297, “Screening Active Compounds from Garcinia Species Native to China Reveals Novel Compounds Targeting the STAT/JAK Signaling Pathway” (BioMed Research International, 2015)
Like-named read-outs stand apart in the source and are kept apart here.

Tests used:
[1] = tested on: NCI-H1650; test: Cell proliferation assay (CellTiter-Glo); format: cell-based, human; conditions: NCI-H1650 cells, 20 μM to 0.009 μM in serial 3-fold dilutions
Method: (§1) All cells were obtained from the cell bank of the American Type Culture Collection (ATCC) and cultured in the supplier's recommended media supplemented with 10% FBS. The cell panel screen was measured using the CellTiter-Glo assay (Promega, Madison, WI) following a standard protocol. Briefly, cancer cells were seeded in 96-well plates and cultured overnight at 37°C with or without 5% CO2 in an incubator. Each compound was dissolved with limited DMSO and diluted to a certain concentration with culture medium and then added to the corresponding well of the cell plate. The final concentration of compound was 20 μM. The control cells (without treatment) received the same amount of DMSO and were incubated under the same conditions. After 72 h cultivation, 100 μL of the CellTiter-Glo reagent was added directly to each well for 10-minute incubation. The plate was then read on a FlexStation 3 microplate luminometer (Molecular Devices, USA) to monitor the luminescence signal generated by the luciferase-catalyzed reaction of luciferin and ATP. The percent of growth inhibition was calculated using the following formula: (untreated cells − treated cells)/(untreated cells − background without cells) ∗ 100.
(§2) For proliferation assays, the CellTiter-Glo assay (Promega, Madison, WI) was used to evaluate the proliferation of cancer cells treated with test compounds as described above. Each compound was dissolved in limited DMSO and diluted to various concentrations with culture medium and then added to the corresponding wells. A dose-response curve was plotted, and the IC50 was calculated using XLfit software.

[2] = tested on: A549; test: Cell proliferation assay (CellTiter-Glo); format: cell-based; conditions: Homo sapiens, A549 cells, 72 h
Method: as §1, §2

[3] = tested on: CHP212; test: Cell proliferation assay (CellTiter-Glo); format: cell-based; conditions: Homo sapiens, CHP-212, CHP212 cells, 72 h
Method: as §1, §2

[4] = tested on: NCI-H1573; test: Cell proliferation assay (CellTiter-Glo); format: cell-based; conditions: Homo sapiens, NCI-H1573 cells, 72 h
Method: as §1, §2

[5] = tested on: NCI-H1975; test: Cell proliferation assay (CellTiter-Glo); format: cell-based; conditions: Homo sapiens, NCI-H1975 cells, 72 h
Method: as §1, §2

[6] = tested on: NCI-H1993; test: Cell proliferation assay (CellTiter-Glo); format: cell-based; conditions: Homo sapiens, NCI-H1993 cells, 72 h
Method: as §1, §2

[7] = tested on: NCI-H838; test: Cell proliferation assay (CellTiter-Glo); format: cell-based; conditions: Homo sapiens, NCI-H838 cells, 72 h
Method: as §1, §2

[8] = tested on: SW954; test: Cell proliferation assay (CellTiter-Glo); format: cell-based; conditions: Homo sapiens, SW 954, SW954 cells, 72 h
Method: as §1, §2

[9] = tested on: HuVec; test: Cell proliferation assay (CellTiter-Glo), control cell line; format: cell-based; conditions: Homo sapiens, 72 h
Method: as §1, §2

[10] = target: T1, JAK2 (Homo sapiens, UniProt O60674); test: Microfluidic mobility shift enzyme assay; format: biochemical
T1 construct: purchased Carna Bioscience, Inc. (Japan)
Method: (§3) The microfluidic mobility shift enzyme assay was performed in an on-chip incubation mode on a Caliper LabChip 2000 Drug Discovery System (Caliper Life Sciences, Hopkinton, MA). The extent of inhibition by the compounds is measured directly by quantifying the level of both unphosphorylated peptide substrate and phosphorylated product after electrophoretic separation using Caliper's LabChip assay technology. To evaluate the compounds for their target and the mechanism by which the compound affects JAK enzyme activity, the compounds were tested against JAK family kinases (JAK1, JAK2, JAK3, and Tyk2) with the Caliper microfluidic mobility-shift platform. The JAK family kinase enzymes and the FAM-labeled substrates were purchased from Carna Bioscience, Inc. (Japan) and Caliper Bioscience (US), respectively.
(§4) For JAK kinase activity measurement, the test compounds were diluted freshly with assay buffer (100 mM HEP ES, 10 mM MgCl2, 1.5 mM betaine, 0.015% Brij, and 25 mM β-glycerophosphate) and added to 384-well plates. FAM-labeled peptide substrate and ATP in assay buffer were added to the wells. After that, JAK enzymes prepared in assay buffer were also added to the wells and mixed to start the reaction. After a period of incubation at room temperature, the reaction was stopped by stop solution (500 mM EDTA). Finally, the plate was put on a Caliper LabChip 2000 system and a droplet of the reaction mixture was applied for electrophoretic separation in the chips of the machine. The enzyme conversion data then was read out for analysis.

[11] = target: T2, JAK3 (Homo sapiens, UniProt P52333); test: Microfluidic mobility shift enzyme assay; format: biochemical
T2 construct: purchased Carna Bioscience, Inc. (Japan)
T2 sequence (P52333 1-1124): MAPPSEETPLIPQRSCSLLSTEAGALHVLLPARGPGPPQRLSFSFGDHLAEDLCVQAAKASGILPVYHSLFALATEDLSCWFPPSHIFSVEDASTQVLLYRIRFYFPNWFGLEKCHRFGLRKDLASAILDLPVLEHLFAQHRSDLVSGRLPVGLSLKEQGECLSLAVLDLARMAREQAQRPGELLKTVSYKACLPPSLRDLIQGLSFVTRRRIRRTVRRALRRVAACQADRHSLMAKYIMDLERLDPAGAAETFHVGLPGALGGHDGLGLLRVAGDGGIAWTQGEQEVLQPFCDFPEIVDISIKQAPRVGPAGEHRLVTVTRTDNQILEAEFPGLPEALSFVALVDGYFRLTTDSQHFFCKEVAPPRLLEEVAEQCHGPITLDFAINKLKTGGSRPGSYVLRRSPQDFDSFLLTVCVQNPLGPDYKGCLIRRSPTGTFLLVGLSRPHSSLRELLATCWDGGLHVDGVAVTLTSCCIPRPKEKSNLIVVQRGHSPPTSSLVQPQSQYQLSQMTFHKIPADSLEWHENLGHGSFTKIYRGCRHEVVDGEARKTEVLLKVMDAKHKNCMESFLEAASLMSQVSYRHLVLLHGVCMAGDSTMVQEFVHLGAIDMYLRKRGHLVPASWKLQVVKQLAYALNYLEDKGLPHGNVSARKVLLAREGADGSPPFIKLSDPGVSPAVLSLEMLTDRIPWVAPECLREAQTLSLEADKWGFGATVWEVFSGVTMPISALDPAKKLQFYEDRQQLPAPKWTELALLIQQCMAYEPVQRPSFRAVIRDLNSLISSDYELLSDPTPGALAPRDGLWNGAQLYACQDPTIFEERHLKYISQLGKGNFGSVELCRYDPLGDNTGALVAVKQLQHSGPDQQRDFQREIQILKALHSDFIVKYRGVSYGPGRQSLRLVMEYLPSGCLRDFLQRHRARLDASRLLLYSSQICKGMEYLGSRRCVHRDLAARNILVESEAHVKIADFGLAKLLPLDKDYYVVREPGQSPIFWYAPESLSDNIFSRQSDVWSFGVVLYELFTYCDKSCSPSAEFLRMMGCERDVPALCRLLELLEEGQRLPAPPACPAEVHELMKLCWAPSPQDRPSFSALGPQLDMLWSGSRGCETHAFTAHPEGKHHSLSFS
Method: as §3, §4

T1 sequence (O60674 whole entry): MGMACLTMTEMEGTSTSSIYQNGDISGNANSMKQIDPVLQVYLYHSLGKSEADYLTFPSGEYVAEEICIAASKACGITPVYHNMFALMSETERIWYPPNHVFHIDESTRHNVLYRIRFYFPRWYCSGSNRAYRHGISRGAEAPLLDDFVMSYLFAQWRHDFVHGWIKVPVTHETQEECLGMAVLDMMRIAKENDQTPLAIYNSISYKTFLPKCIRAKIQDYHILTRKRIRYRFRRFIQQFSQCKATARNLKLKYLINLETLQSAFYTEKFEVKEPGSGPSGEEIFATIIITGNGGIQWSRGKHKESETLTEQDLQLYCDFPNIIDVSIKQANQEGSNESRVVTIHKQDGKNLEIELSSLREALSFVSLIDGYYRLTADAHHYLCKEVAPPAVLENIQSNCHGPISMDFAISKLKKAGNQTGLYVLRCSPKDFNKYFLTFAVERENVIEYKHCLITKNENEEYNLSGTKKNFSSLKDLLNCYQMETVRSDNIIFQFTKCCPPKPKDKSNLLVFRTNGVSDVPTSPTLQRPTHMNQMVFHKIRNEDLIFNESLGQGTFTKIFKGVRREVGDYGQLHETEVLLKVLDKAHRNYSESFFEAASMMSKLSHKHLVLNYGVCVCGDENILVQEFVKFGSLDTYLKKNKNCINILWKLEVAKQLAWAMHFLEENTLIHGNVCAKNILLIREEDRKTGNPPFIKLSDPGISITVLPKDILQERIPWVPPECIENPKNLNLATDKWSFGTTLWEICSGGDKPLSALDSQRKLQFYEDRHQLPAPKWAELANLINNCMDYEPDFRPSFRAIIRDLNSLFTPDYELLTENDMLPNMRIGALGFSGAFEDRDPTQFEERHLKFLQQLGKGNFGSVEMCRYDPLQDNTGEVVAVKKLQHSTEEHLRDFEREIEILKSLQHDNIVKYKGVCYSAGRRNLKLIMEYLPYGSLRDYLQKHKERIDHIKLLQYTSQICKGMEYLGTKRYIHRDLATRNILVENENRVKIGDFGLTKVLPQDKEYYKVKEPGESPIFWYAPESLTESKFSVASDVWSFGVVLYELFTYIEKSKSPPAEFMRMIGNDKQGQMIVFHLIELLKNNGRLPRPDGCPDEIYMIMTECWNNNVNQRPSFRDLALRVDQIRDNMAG

| SMILES | IC50 ([1]; Homo sapiens, NCI-H1650, 72 h) [nM] | IC50 [2] [nM] | IC50 [3] [nM] | IC50 [4] [nM] | IC50 [5] [nM] | IC50 [6] [nM] | IC50 [7] [nM] | IC50 [8] [nM] | IC50 [9] [nM] | IC50 ([1]; 72 hr) [nM] | difference in IC50s between JAK2 and Tyk2 [10] [fold] | inhibition of JAK2 kinase activity (in words) [10] | IC50 ([10]; JAK2 enzyme, read-out: IC50) [nM] | inhibition of JAK3 kinase activity (in words) [11] | IC50 ([11]; JAK3 enzyme, read-out: IC50) [nM] | IC50 ([1]; Homo sapiens, 72 hr) [nM] | IC50 ([10]; IC50, JAK2 enzyme) [nM] | IC50 ([11]; IC50, JAK3 enzyme) [nM] |
| --- | --- | --- | --- | --- | --- | --- | --- | --- | --- | --- | --- | --- | --- | --- | --- | --- | --- | --- |
| CC(C)=CCC/C(C)=C/Cc1c(O)c(CC=C(C)C)c2c(c1O)C(=O)C1=C[C@@H]3C[C@H]4C(C)(C)O[C@@](C/C=C(\C)C=O)(C3=O)[C@@]14O2 [GB49] | 970 ± 40 | 3460 ± 200 | 1430 ± 30 | 7890 ± 140 | 1690 ± 150 | 2550 ± 140 | 2720 ± 150 | 1880 ± 100 | 1470 ± 70 | – | – | – | – | – | – | – | – | – |
| CC(C)=CCC[C@@]1(C)C=Cc2c(O)c3c(c(CCC(C)(C)O)c2O1)O[C@]12C(=C[C@@H]4C[C@H]1C(C)(C)O[C@@]2(C/C=C(/C)C(=O)O)C4=O)C3=O [GB39, 33-hydroxyepigambogic acid] | < 1000 | 3040 ± 100 | 1200 ± 80 | 6080 ± 210 | 1250 ± 140 | 1030 ± 130 | 1500 ± 70 | 940 ± 40 | 890 ± 90 | 950 ± 30 | 10 | significantly inhibited | 1700 ± 100 | significantly inhibited | 3800 ± 300 | – | – | – |
| CC(C)=CCC/C(C)=C/Cc1c(O)c(CC=C(C)C)c2c(c1O)C(=O)C1=C[C@@H]3C[C@H]4C(C)(C)O[C@@](C/C=C(\C)C(=O)O)(C3=O)[C@@]14O2 [GB63] | 1430 ± 90 | 3770 ± 60 | 3510 ± 80 | 7920 ± 290 | 1710 ± 220 | 2150 ± 100 | 2650 ± 200 | 2580 ± 160 | 1900 ± 30 | – | – | – | – | – | – | – | – | – |
| CC(C)=CCC/C(C)=C/Cc1c(O)c(CC=C(C)C)c2c(c1O)C(=O)C1=C[C@@H]3C[C@H]4C(C)(C)O[C@@](CC=C(C)C)(C3=O)[C@@]14O2 [GB32] | – | 2880 ± 60 | 1450 ± 80 | 4360 ± 150 | 1580 ± 120 | 2470 ± 110 | 3150 ± 40 | 2430 ± 170 | 1630 ± 60 | – | – | minor inhibition | – | minor inhibition | – | 1090 ± 150 | 37300 ± 6900 | 17500 ± 1500 |
| CC(C)=CCC[C@@]1(C)C=Cc2c(O)c3c(c(C/C=C(\C)CO)c2O1)O[C@]12C(=C[C@@H]4C[C@H]1C(C)(C)O[C@@]2(C/C=C(/C)C(=O)O)C4=O)C3=O [GB40, 35-hydroxyepigambogic acid] | < 1000 | 2450 ± 60 | 1180 ± 50 | 5990 ± 190 | 960 ± 50 | 1290 ± 50 | 1680 ± 190 | 1020 ± 100 | 680 ± 10 | 620 ± 30 | 10 | significantly inhibited | 1400 ± 100 | significantly inhibited | 3200 ± 200 | – | – | – |
